Legend:
TAK1-TAB1 = molecular target: T1, TAK1-TAB1 (Homo sapiens, UniProt O43318); assay: TAK1-TAB1 binding inhibitory potency (LanthaScreen competitive binding assay, kinase tracer-236); settings: 10 nM TAK1-TAB1, 100 nM kinase tracer-236; read-out: TAK1-Tab Inhibition IC50
T1 sequence (O43318 with tags, fused parts or gaps limits assumed): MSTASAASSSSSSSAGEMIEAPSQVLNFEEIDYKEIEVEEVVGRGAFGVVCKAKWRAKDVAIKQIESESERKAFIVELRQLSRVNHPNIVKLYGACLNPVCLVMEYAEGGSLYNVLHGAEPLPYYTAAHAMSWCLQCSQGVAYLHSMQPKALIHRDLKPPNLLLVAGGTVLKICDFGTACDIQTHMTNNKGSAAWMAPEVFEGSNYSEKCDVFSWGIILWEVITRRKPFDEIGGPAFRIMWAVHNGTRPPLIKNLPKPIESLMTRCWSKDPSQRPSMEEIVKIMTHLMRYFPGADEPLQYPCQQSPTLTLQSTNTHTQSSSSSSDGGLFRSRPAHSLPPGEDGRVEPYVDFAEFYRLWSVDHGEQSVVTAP
Summary of the method: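 Compounds were tested for TAK1-TAB1 binding in a 384-well LanthaScreen competitive FRET assay. TAK1-TAB1 (10 nM) and Eu-anti-his antibody (2 nM) were preincubated with compound for two hours before adding 100 nM Alexa Fluor 647 kinase tracer-236. The buffer was 20 mM HEPES pH 7.5, 10 mM MgCl2, 0.01% BSA, 0.0005% Tween-20 and 2% DMSO. IC50 came from 4-parameter logistic fits of emission ratio over an 11-point series from 20 μM to 0.34 nM.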

[1] = test system: IL-6 Production in Human Peripheral Blood Mononuclear Cells (PBMC); assay: LPS stimulated IL-6 production in PBMC cells; format: cell-based; settings: read-out: IL-6 Production Inhibition IC50
Protocol: LPS Stimulated IL-6 Production in PBMC Cells:
Lipopolysaccharide (LPS) stimulated IL-6 Production in Human Peripheral Blood Mononuclear Cells (PBMC): The cellular efficacy of compound candidates is determined using peripheral blood mononuclear cells purified from human whole blood, based upon the methods of Burnette et al. (2009) Pharmacology, 84:42-60. PBMC produce a number of cytokines (IL6, IL8, IL1β and TNFα) in response to stimulation with LPS. To induce the production of inflammatory mediators, PBMC are plated at a final concentration of 2×10^5 cells/well in a 96 well flat bottom plate in DMEM medium supplemented with 10% fetal bovine serum, 100 units/ml penicillin and 100 μg/ml streptomycin (Gibco BRL Life Technologies). Cells are treated with or without inhibitors for 1-3 hrs then stimulated with 100 ng/ml LPS (serotype 011:B4, Sigma) for an additional 3 hrs at 37° C. with 5% CO2. The supernatants are removed and stored at −20° C. until they are to be assayed. The levels of inflammatory mediators are determined using commercial MSD cytokine kits (Meso Scale Discovery) as per the manufacturer's instructions. Standard curves are based on 7 steps of 4× serial dilutions, with a wide dynamic range of 10000 pg/ml to 2.4 pg/ml, and a blank. Lower limit of detection (LLOD) is calculated at the commonly used 3× the standard deviation of the blank.

IC50 (TAK1-TAB1) [nM] | SMILES | IC50 [1] [nM]
≤ 1000 | CSc1ncc(-c2cnc3[nH]cc(/C=C/C(N)=O)c3c2)cn1 [Example 287, (E)-3-(5-(2-(methylthio)pyrimidin-5-yl)-1H-pyrrolo[2,3-b]pyridin-3-yl)acrylamide] | ≤ 1000
≤ 1000 | N#Cc1ccc(-c2cnc3[nH]cc(/C=C/C(N)=O)c3n2)cc1 [Example 249, (E)-3-(2-(4-cyanophenyl)-5H-pyrrolo[2,3-b]pyrazin-7-yl)acrylamide] | ≤ 1000
≤ 1000 | NC(=O)/C=C/c1c[nH]c2ncc(N3CC(NC(=O)c4ccccc4)C3)cc12 [Example 298, (E)-N-(1-(3-(3-amino-3-oxoprop-1-en-1-yl)-1H-pyrrolo[2,3-b]pyridin-5-yl)azetidin-3-yl)benzamide] | ≤ 1000
≤ 1000 | CC(C)Nc1cnc2[nH]cc(/C=C/C(N)=O)c2n1 [Example 10, 3-(2-Isopropylamino-5H-pyrrolo[2,3-b]pyrazin-7-yl)-acrylamide] | ≤ 1000
≤ 1000 | NC(=O)/C=C/c1c[nH]c2ncc(-c3cccnc3)cc12 [Example 13, 3-(5-Pyridin-3-yl-1H-pyrrolo[2,3-b]pyridin-3-yl)-acrylamide] | ≤ 1000
≤ 1000 | CC(C)N1CCN(C(=O)c2ccc(-c3cnc4[nH]cc(/C=C/C(N)=O)c4c3)cc2)CC1 [Example 268, (E)-3-(5-(4-(4-isopropyl-piperazine-1-carbonyl)phenyl)-1H-pyrrolo[2,3-b]pyridin-3-yl)acrylamide] | ≤ 1000
≤ 1000 | NC(=O)/C=C/c1c[nH]c2ncc(-c3ccc(C(=O)N4CCCC4)nc3)cc12 [Example 281, (E)-3-(5-(6-(pyrrolidine-1-carbonyl)pyridin-3-yl)-1H-pyrrolo[2,3-b]pyridin-3-yl)acrylamide] | > 1000
≤ 1000 | CC(C)(O)COc1ccc(-c2cnc3[nH]cc(/C=C/C(N)=O)c3c2)cn1 [Example 291, (E)-3-(5-(6-(2-hydroxy-2-methylpropoxy)pyridin-3-yl)-1H-pyrrolo[2,3-b]pyridin-3-yl)acrylamide] | ≤ 1000
≤ 1000 | Cc1cc(-c2cnc3[nH]cc(/C=C/C(N)=O)c3c2)cc(C(C)(C)C)c1 [Example 256, (E)-3-(5-(3-(tert-butyl)-5-methylphenyl)-1H-pyrrolo[2,3-b]pyridin-3-yl)acrylamide] | ≤ 1000
> 1000 | CC(C)(C)C(=O)NC1CN(c2cnc3[nH]cc(/C=C/C(N)=O)c3c2)C1 [Example 282, (E)-3-(5-(3-pivalamidoazetidin-1-yl)-1H-pyrrolo[2,3-b]pyridin-3-yl)acrylamide] | > 1000
≤ 1000 | Cn1cc(-c2cnc3[nH]cc(/C=C/C(N)=O)c3c2)cn1 [Example 5, (E)-3-(5-(1-Methyl-1H-pyrazol-4-yl)-1H-pyrrolo[2,3-b]pyridin-3-yl)acrylamide] | ≤ 1000
≤ 1000 | CC(C)(O)c1ccc(-c2cnc3[nH]cc(/C=C/C(N)=O)c3c2)cc1 [Example 247, (E)-3-(5-(4-(2-hydroxypropan-2-yl)phenyl)-1H-pyrrolo[2,3-b]pyridin-3-yl)acrylamide] | ≤ 1000
≤ 1000 | CC(C)C(=O)NC1CN(c2cnc3[nH]cc(/C=C/C(N)=O)c3c2)C1 [Example 283, (E)-3-(5-(3-isobuty-ramidoazetidin-1-yl)-1H-pyrrolo[2,3-b]pyridin-3-yl)acrylamide] | ≤ 1000
≤ 1000 | CC(C)(O)COc1ccc(-c2cnc3[nH]cc(/C=C/C(N)=O)c3c2)cc1 [Example 32, (E)-3-(5-(4-(2-hydroxy-2-methylpropoxy)phenyl)-1H-pyrrolo[2,3-b]pyridin-3-yl)acrylamide] | ≤ 1000

The next lines start with the compound.

SMILES | IC50 (TAK1-TAB1) [nM] | IC50 [1] [nM]
COc1ccc(-c2cnc3[nH]cc(/C=C/C(N)=O)c3c2)cc1 [Example 12, (E)-3-(5-(4-Methoxyphenyl)-1H-pyrrolo[2,3-b]pyridin-3-yl)acrylamide] | ≤ 1000 | ≤ 1000
NC(=O)/C=C/c1c[nH]c2ncc(-c3cncnc3)cc12 [Example 286, (E)-3-(5-(pyrimidin-5-yl)-1H-pyrrolo[2,3-b]pyridin-3-yl)acrylamide] | ≤ 1000 | > 1000
NC(=O)/C=C/c1c[nH]c2ncc(-c3ccccc3)cc12 [Example 1, 3-(5-Phenyl-1H-pyrrolo[2,3-b]pyridin-3-yl)-acrylamide] | ≤ 1000 | ≤ 1000
NC(=O)/C=C/c1c[nH]c2ncc(-c3ccc(N4CCCC4)nc3)cc12 [Example 250, (E)-3-(5-(6-(pyrrolidin-1-yl)pyridin-3-yl)-1H-pyrrolo[2,3-b]pyridin-3-yl)acrylamide] | ≤ 1000 | ≤ 1000
CC(C)(C)OC(=O)NC1CN(c2cnc3[nH]cc(/C=C/C(N)=O)c3c2)C1 [Example 269, (E)-tert-butyl(1-(3-(3-amino-3-oxoprop-1-en-1-yl)-1H-pyrrolo[2,3-b]pyridin-5-yl)azetidin-3-yl)carbamate] | ≤ 1000 | ≤ 1000
NC(=O)/C=C/c1c[nH]c2ncc(-c3ccc(C(=O)NC4CC4)cc3)cc12 [Example 270, (E)-4-(3-(3-amino-3-oxoprop-1-en-1-yl)-1H-pyrrolo[2,3-b]pyridin-5-yl)-N-cyclopropyl-benzamide] | ≤ 1000 | > 1000
NC(=O)/C=C/c1c[nH]c2ncc(-c3cc(C(F)(F)F)cc(C(F)(F)F)c3)cc12 [Example 253, (E)-3-(5-(3,5-bis(trifluoromethyl)phenyl)-1H pyrrolo[2,3-b]pyridin-3-yl)acrylamide] | ≤ 1000 | ≤ 1000
NC(=O)/C=C/c1c[nH]c2ncc(N3CCN(C(=O)C4CCCC4)CC3)cc12 [Example 278, (E)-3-(5-(4-(cyclopentane-carbonyl)piperazin-1-yl)-1H-pyrrolo[2,3-b]pyridin-3-yl)acrylamide] | ≤ 1000 | > 1000
C[C@@H](O)CNC(=O)c1ccc(-c2cnc3[nH]cc(/C=C/C(N)=O)c3c2)cc1 [Example 294, (R,E)-4-(3-(3-amino-3-oxoprop-1-en-1-yl)-1H-pyrrolo[2,3-b]pyridin-5-yl)-N-(2-hydroxypropyl) benzamide] | ≤ 1000 | > 1000
CC(=O)c1ccc(-c2cnc3[nH]cc(/C=C/C(N)=O)c3c2)cc1 [Example 245, (E)-3-(5-(4-acetylphenyl)-1H-pyrrolo[2,3-b]pyridin-3-yl)acrylamide] | ≤ 1000 | ≤ 1000
NC(=O)/C=C/c1c[nH]c2ncc(N3CCN(c4ccccc4)CC3)cc12 [Example 297, (E)-3-(5-(4-phenylpiperazin-1-yl)-1H-pyrrolo[2,3-b]pyridin-3-yl)acrylamide] | ≤ 1000 | ≤ 1000
CC(C)NC(=O)c1ccc(-c2cnc3[nH]cc(/C=C/C(N)=O)c3c2)nc1 [Example 295, (E)-6-(3-(3-amino-3-oxoprop-1-en-1-yl)-1H-pyrrolo[2,3-b]pyridin-5-yl)-N-isopropyl-nicotinamide] | ≤ 1000 | > 1000
CC(=O)c1cccc(-c2cnc3[nH]cc(/C=C/C(N)=O)c3c2)c1 [Example 244, (E)-3-(5-(3-acetylphenyl)-1H-pyrrolo[2,3-b]pyridin-3-yl)acrylamide] | ≤ 1000 | ≤ 1000
N#Cc1ccc(-c2cnc3[nH]cc(/C=C/C(N)=O)c3c2)cc1 [Example 17, 3-[5-(4-Cyano-phenyl)-1H-pyrrolo[2,3-b]pyridin-3-yl]-acrylamide] | ≤ 1000 | ≤ 1000
COc1cc(OC2CCCC2)cc(-c2cnc3[nH]cc(/C=C/C(N)=O)c3c2)c1 [Example 257, (E)-3-(5-(3-(cyclopentyloxy)-5-methoxyphenyl)-1H-pyrrolo[2,3-b]pyridin-3-yl)acrylamide] | ≤ 1000 | ≤ 1000
COc1cccc(-c2cnc3[nH]cc(/C=C/C(N)=O)c3c2)c1 [Example 11, (E)-3-(5-(3-Methoxyphenyl)-1H-pyrrolo[2,3-b]pyridin-3-yl)acrylamide] | ≤ 1000 | ≤ 1000
C[C@H](O)C(=O)N1CCN(c2cnc3[nH]cc(/C=C/C(N)=O)c3c2)CC1 [Example 276, (S,E)-3-(5-(4-(2-hydroxypropanoyl)piperazin-1-yl)-1H-pyrrolo[2,3-b]pyridin-3-yl)acrylamide] | ≤ 1000 | > 1000

From US9499551B2, “Substituted pyrrolo[2,3-b]pyridines for treating cancer or inflammatory diseases” (Confluence Life Sciences, Inc., priority 2014, dated 2016)
